# Measurements from patent US20180362961A1, “METHODS AND COMPOSITIONS FOR ENHANCED NUCLEASE-MEDIATED GENOME MODIFICATION AND REDUCED OFF-TARGET SITE EFFECTS” (Danisco US Inc., priority 2015, published 2018).
# Read-outs that look alike come from different tables or passages of the source.
# Key:
# [1] = tested on: Yarrowia lipolytica cells; assay: Relative copy number analysis (qPCR) of CAN1 fragment for off-target insertion of editing template by NHEJ; type: cell-based; conditions: for Fraction of cells with single copy of CAN1 / Fraction of cells with ≥2 copies of CAN1: HDR-positive colonies
# Description: An additional complication of repair of Cas9/gRNA generated double-stranded breaks using editing template is the possibility that the editing template can be incorporated by the NHEJ pathway at other regions of DNA damage. In order to determine the frequency at which this occurs in the cells treated with editing templates under the three different Scr-7 treatments, relative copy number analysis was performed looking for a 62 bp fragment of the CAN1 locus present in both the chromosome and the editing template (SEQ ID NO: 42). Relative copy number analysis was performed on colonies from cells treated with pRF303 (SEQ ID NO: 24) and linear editing template (SEQ ID NO: 34) under all three treatment conditions. If the editing template is only incorporated during the HDR of the Cas9/gRNA double strand break at the CAN1 locus (SEQ ID NO: 35) the cell will only carry a single copy of the copy number analysis fragment (SEQ ID NO: 42). However, if the cell incorporates additional copies of the editing template elsewhere in the genome due to the activity of the NHEJ pathway additional copies of the fragment will be present and the cell will return a higher relative copy number. Briefly, genomic DNA was isolated using standard techniques from colonies that scored positive for HDR of the Can1-1 Cas9/gRNA targeted double strand break. Genomic DNA was normalized to 5 ng/μl. 1 μl of the normalized genomic DNA from each colony was added to three replicate qPCR reactions for both the CAN1 locus (SEQ ID NO: 42), (primers used, AGCGCCAAACCCAAAGC, forward (SEQ ID NO: 43), […], reverse (SEQ ID NO: 44), and 6FAM-[…]-TAMRA, probe (SEQ ID NO: 45)) or as a control the TEF1 locus (SEQ ID NO: 56) (primers used, […], forward (SEQ ID NO: 47), […], reverse (SEQ ID NO: 48) and 6FAM-[…]-TAMRA, probe (SEQ ID NO: 49)). Reactions were run in TaqMAN universal PCR master mix (ABI life technologies) on a life technologies Quant Studio 7 instrument using the following cycling conditions 95° C. for 10 minutes followed by 40 cycles of 95° C. for 15 seconds, 60° C. for 1 minute. 6FAM fluorescence from the probes was monitored through the 40 cycles of the PCR and Ct values were collected. Relative gene copy number was determined by the ΔΔCt method (User Bulletin #2 ABI PRISM 7700 Sequence Detection System (Updated 2001)). Briefly, TEF1 Ct values were used to normalize the data for differences in cell copy number between genomic DNA samples. Genomic DNA from a wildtype strain was used as a reference for the relative quantification for the CAN1 copy number fragment (SEQ ID NO: 42). Software on the Quant studio 7 calculated relative gene copy number and corresponding error for each sample relative to the wildtype strain. The colonies were separated into two bins, those with a single relative copy of the CAN1 analysis fragment (SEQ ID NO: 42) and those with 2 or more relative copies (SEQ ID NO: 42). […] The second bin represents cells where the editing template was used to repair the Cas9/gRNA generated double-strand break at the Can1-1 target site (SEQ ID NO: 22) and was integrated at least once somewhere else in the genome via a NHEJ mechanism.
# [2] = tested on: Yarrowia lipolytica cells
# Source text: In this example Yarrowia lipolytica cells treated with the DNA Ligase IV inhibitor, Scr7, were transformed with targeting plasmids in the presence and absence of editing templates. Homology directed repair (HDR) occurs between an editing template and the target DNA when there are two regions of homology flanking a region of interest (FIG. 3). A DNA double-stranded break at a target site within the region of interest can initiate HDR replacing the region of interest (FIG. 3, white box) with a modified region of interest carried on the editing template. In this example the modified region of interest lacks the entire open-reading frame of the CAN1 gene.
# Cells were phenotypically scored for Canavanine resistance to determine overall targeting efficiency (NHEJ+HDR). Colony PCR of the CAN1 locus (SEQ ID NO: 35) was performed to differentiate repair of the Cas9/gRNA generated double-strand break by HDR or NHEJ.
# Three different treatment conditions were tested: Untreated, Scr7-A, and Scr7-B (A schematic of the three treatments is shown in FIG. 4). For all three conditions a uracil auxotrophic strain of Yarrowia lipolytica ATCC20362 was used For the untreated condition the strain was grown for 24 hours on YPD medium plates (Teknova) at 30° C. (also referred to as a pretreatment). 1 loop of cells were resuspended in transformation buffer (35% polyethylene glycol average molecular weight of 3550, 100 mM lithium acetate, 100 mM dithiothreitol, 10 mM Tris, 1 mM EDTA pH 6.0). 100 μl of cell suspension was mixed with 100 ng of either pRF291 (SEQ ID NO: 18) (Cas9 expression, no gRNA) or pRF303 (SEQ ID NO: 24) (Cas9 expression, Can1-1 gRNA expression) with either no editing template or 1 μg linear editing template (SEQ ID NO: 34). Transformation mixtures were incubated at 39° C. for 1 hour at 800 RPM. Transformation mixtures were plated on complete minimal medium plates lacking uracil (Teknova) to select for cells transformed with plasmid DNA. Plates were incubated at 30° C. for 48 hours.
# For treatment Scr7-A the strain was grown for 24 hours on YPD medium plates (Teknova) at 30° C. (also referred to as a pretreatment). 1 loop of cells were resuspended in modified transformation buffer (35% polyethylene glycol average molecular weight of 3550, 100 mM lithium acetate, 100 mM dithiothreitol, 10 mM Tris, 1 mM EDTA pH 6.0, 5 μM Scr7). 100 μl of cell suspension was mixed with 100 ng of either pRF291 (SEQ ID NO:18) (Cas9 expression, no gRNA) or pRF303 (SEQ ID NO: 24) (Cas9 expression, Can1-1 gRNA expression) with either no editing template or 1 μg linear editing template (SEQ ID NO: 31). Transformation mixtures were incubated at 39° C. for 1 hour at 800 RPM. Transformation mixtures were plated on complete minimal medium plates lacking uracil (Teknova) to select for cells transformed with plasmid DNA. Plates were incubated at 30° C. for 48 hours.
# For treatment Scr7-B the strain was grown for 24 hours on YPD medium plates containing 5 μM Scr7 at 30° C. (also referred to as a pretreatment). 1 loop of cells were resuspended in modified transformation buffer (35% polyethylene glycol average molecular weight of 3550, 100 mM lithium acetate, 100 mM dithiothreitol, 10 mM Tris, 1 mM EDTA pH 6.0, 5 μM Scr7). 100 μl of cell suspension was mixed with 100 ng of either pRF291 (SEQ ID NO:18) (Cas9 expression, no gRNA) or pRF303 (SEQ ID NO: 24) (Cas9 expression, Can1-1 gRNA expression) with either no editing template or 1 μg linear editing template (SEQ ID NO: 31). Transformation mixtures were incubated at 39° C. for 1 hour at 800 RPM. Transformation mixtures were plated on complete minimal medium containing 5 μM Scr-7 plates lacking uracil. Plates were incubated at 30° C. for 48 hours.
# For each condition, 24 colonies from each transformation were streak purified on complete minimal plates lacking uracil (Teknova) for single colonies.
# [3] = tested on: Yarrowia lipolytica cells; assay: Colony PCR of the CAN1 locus to determine frequency of HDR at Cas9/gRNA double-strand breaks; type: cell-based; conditions: for Fold HDR over untreated (±SEM) / HDR Frequency (±SEM): pRF303, Can1-1 target site, with editing template
# Description: To determine the frequency of HDR at the targeted double-strand breaks generated by Cas9/gRNA at the Can1-1 target site Yarrowia colony PCR of the CAN1 locus (SEQ ID NO: 40) (primers used, […], forward (SEQ ID NO: 38) and […], reverse (SEQ ID NO: 39)) was performed using standard techniques. If the CAN1 locus was unmodified or contained a small indel generated by NHEJ the colony PCR result would give a band similar in size to the WT CAN1 locus at an apparent size of 2125 bp (SEQ ID NO: 40). If the Cas9/gRNA generated double-strand break had been repaired using the editing templates the PCR would generate a smaller CAN1 locus product 392 bp indicating the deletion of the entire open-reading frame (SEQ ID NO: 41). Colony PCR was performed on all canavanine resistant colonies from cells transformed with pRF303 in the presence of editing template and the fraction of cells where the Cas9/gRNA generated double-strand break was repaired via HDR with the editing template and various Scr-7 treatment schemes was determined (Table 1).
# [4] = Scr7 treatment A, pRF303 and linear editing template
# [5] = Scr7 treatment B, pRF303 and linear editing template
structure (smiles),measurement,setting,value
O=c1[nH]c(=S)[nH]c(N=Cc2ccccc2)c1N=Cc1ccccc1 [Scr7],Fraction of cells with single copy of CAN1,[1]; [4],0.38
same,Fraction of cells with ≥2 copies of CAN1,[1]; [4],0.63
same,Fraction of cells with single copy of CAN1,[1]; [5],1
same,Fraction of cells with ≥2 copies of CAN1,[1]; [5],0
same,Colonies with a single copy of the CAN1 editing template,"[1]; Scr-7 treatment A, pRF303 and linear editing template",approximately 40%
same,Colonies with only a single copy of the CAN1 locus,"[1]; Scr-7 treatment B, pRF303 and editing template",100%
same,Canavanine resistance frequency (±Std. Dev),"[2]; Scr7 treatment A (5 μM Scr7 in transformation buffer), pRF291 (Cas9, no gRNA), no editing template",0 ± 0
same,Canavanine resistance frequency (±Std. Dev),"[2]; Scr7 treatment A, pRF291 (Cas9, no gRNA), with editing template",0 ± 0
same,Canavanine resistance frequency (±Std. Dev),"[2]; Scr7 treatment A, pRF303 (Can1-1 gRNA), no editing template",62.2 ± 6.7
same,Canavanine resistance frequency (±Std. Dev),"[2]; Scr7 treatment A, pRF303 (Can1-1 gRNA), with editing template",64.2 ± 6.4
same,Canavanine resistance frequency (±Std. Dev),"[2]; Scr7 treatment B (5 μM Scr7 in 24 h pretreatment, transformation buffer and selection plates), pRF291 (Cas9, no gRNA), no editing template",0 ± 0
same,Canavanine resistance frequency (±Std. Dev),"[2]; Scr7 treatment B, pRF291 (Cas9, no gRNA), with editing template",0 ± 0
same,Canavanine resistance frequency (±Std. Dev),"[2]; Scr7 treatment B, pRF303 (Can1-1 gRNA), no editing template",68.7 ± 6.3
same,Canavanine resistance frequency (±Std. Dev),"[2]; Scr7 treatment B, pRF303 (Can1-1 gRNA), with editing template",64.6 ± 20.3
same,Canavanine resistant cells,"[2]; pRF291 (Cas9, no functional gRNA), regardless of Scr-7 treatment scheme",did not give rise to Canavanine resistance cells
same,Fold HDR over untreated (±SEM),[3]; Scr7 treatment A,0.9 ± 0.1 fold
same,HDR Frequency (±SEM),[3]; Scr7 treatment A,9.7 ± 1.4
same,Fold HDR over untreated (±SEM),[3]; Scr7 treatment B,1.5 ± 0.3 fold
same,HDR Frequency (±SEM),[3]; Scr7 treatment B,16.7 ± 4.8
same,Fold HDR over untreated (±SEM),"[3]; Scr7 treatment B, listed as Scr-7",1.5 fold
same,"Fraction of breaks repaired via HDR, as % of the frequency of untreated or short Scr-7 treatment A","[3]; extended Scr-7 treatment B, linear editing template",150%
